Assay [1] deals with T1, CCK receptors (Cavia porcellus, UniProt Q63931).
T1 construct: cortex and pancreas were removed and rinsed with ice-cold saline; from tissue; host or cells: guinea pig pancreas membranes
T1 sequence (Q63931 1-430): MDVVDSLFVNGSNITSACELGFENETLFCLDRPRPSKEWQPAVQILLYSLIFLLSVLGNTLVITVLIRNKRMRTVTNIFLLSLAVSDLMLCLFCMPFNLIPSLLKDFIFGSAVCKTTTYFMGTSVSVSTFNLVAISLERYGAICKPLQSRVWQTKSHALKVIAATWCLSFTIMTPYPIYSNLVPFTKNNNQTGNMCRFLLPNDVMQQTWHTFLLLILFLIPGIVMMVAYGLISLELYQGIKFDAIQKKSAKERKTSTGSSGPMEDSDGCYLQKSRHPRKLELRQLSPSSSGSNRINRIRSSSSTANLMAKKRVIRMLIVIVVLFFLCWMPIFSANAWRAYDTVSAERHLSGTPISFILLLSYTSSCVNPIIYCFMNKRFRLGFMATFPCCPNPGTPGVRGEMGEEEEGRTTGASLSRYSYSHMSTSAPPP
Nature of the assay: [125I]BH-CCK8 radioligand binding, guinea pig pancreatic membranes. Conditions: 37°C for 30 min, read-out: IC₅₀ (nM) [¹²⁵I]-BH-CCK₈ Pancreas.

Assay [2] concerns the target T2, CCK receptors (Cavia porcellus, UniProt H0VZC5).
T2 construct: cortex and pancreas were removed and rinsed with ice-cold saline; from tissue; host or cells: guinea pig cerebral cortex membranes
T2 sequence (H0VZC5 1-426): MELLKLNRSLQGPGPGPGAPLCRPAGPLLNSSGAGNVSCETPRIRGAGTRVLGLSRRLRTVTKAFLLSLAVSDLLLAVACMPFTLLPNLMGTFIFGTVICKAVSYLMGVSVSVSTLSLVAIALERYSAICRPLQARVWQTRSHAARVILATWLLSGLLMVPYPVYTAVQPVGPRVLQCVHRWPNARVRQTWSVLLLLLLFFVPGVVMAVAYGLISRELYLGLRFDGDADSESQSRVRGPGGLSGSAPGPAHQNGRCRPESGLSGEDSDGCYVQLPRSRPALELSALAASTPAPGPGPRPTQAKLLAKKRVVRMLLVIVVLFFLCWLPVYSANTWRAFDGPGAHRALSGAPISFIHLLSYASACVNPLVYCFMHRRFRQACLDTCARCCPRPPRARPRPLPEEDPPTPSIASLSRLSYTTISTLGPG
Kind of assay: [125I]BH-CCK8 radioligand binding, guinea pig cerebral cortical membranes. Conditions: 30°C for 150 min, read-out: IC₅₀ (nM) [¹²⁵I]-BH-CCK₈ Cortex.

Assay [3] addresses T1, CCK receptors. Kind of assay: Inhibition of CCK8-stimulated amylase release from guinea pig pancreatic acini. The assay is classed as cell-based. The following applies: reference concentration for CCK₈ 3x10⁻¹⁰M, 37°C, 30 min, read-out: IC₅₀ (nM) Inhibition of Amylase Release. As for the experimental part: This assay was performed using the modified protocol of Lin et al., J. Pharmacol Exp. Ther. 236, 729-734, 1986. Guinea pig acini were prepared by the method of Bruzzone et al. (Biochem. J. 226, 621-624, 1985) as follows. Pancreas was dissected out and connective tissues and blood vessels were removed. […] The composition of the KRH buffer was: HEPES, 12.5 mM: NaCl, 118 mM; […] CaCl₂, 1 mM; KH₂PO₄, 1.2 mM; MgSO₄, 1.2 mM; NaHCO₃, 5 mM; glucose, 10 mM, pH 7.4. The buffer was supplemented with 1% MEM vitamins, 1% MEM amino acids and 0.001% aprotinin. The tube was shaken by hand until the suspension appeared homogeneous, usually 5 to 6 min. 5 mL of the KRH, without collagenase and with 0.1% BSA, were added and the tube was centrifuged at 50 x g for 35 sec. The supernatant was discarded and 6 mL of the KRH were added to the cell pellet. […] This wash procedure was repeated once. The cell pellet from the last centrifugation step was then resuspended in 15 mL of KRH containing 0.1% BSA. The contents were filtered through a dual nylon mesh, size 275 and 75 um. The filtrate, containing the acini, were centrifuged at 50 x g for 3 min. The acini were then resuspended in 5 mL of KRH-BSA buffer for 30 min at 37°C, under 100% O₂, with a change of fresh buffer at 15 min. After the 30 min incubation time, the acini were resuspended in 100 volumes of KRH-BSA buffer, containing 3 uM phosphoramidon and 100 µM bestatin. […] The final assay volume was 500 uL. Tubes were vortexed and placed in a 37°C waterbath, under 100% O₂, for 30 min. Afterward, tubes were centrifuged at 10,000 g for 1 min. Amylase activity in the supernatant and the cell pellet were separately determined after appropriate dilutions in 0.1% Triton X-100, 10 mM NaH₂PO₄, pH 7.4 by Abbott Amylase A-gent test using the Abbott Bichromatic Analyzer 200. […]

Assay [4] relates to CCK receptors. Kind of assay: Antagonism of CCK mediated behavioral effect in mice (reversal of CCK-induced inactivity). The assay is classed as in vivo. The following applies: minimally effective dose, ICV, coadministered with CCK₈ 3 nmol, male Swiss CD-1 mice, statistically significant reversal of CCK-induced inactivity. From the text: Male Swiss CD-1 mice (Charles River) (22-27 g) were provided with ample food (Purina Lab (show) and water until the time of their injection with the test compound.
ICV injections were given by a free-hand method similar to that previously described (Haley, and McCormick, Br. J. Pharmacol. Chemother. 12 12-15 (1957)). The animals were placed on a slightly elevated metal grid and restrained by the thumb and forefinger at the level of the shoulders, thus immobilizing their heads. Injections were made with a 30 gauge needle with a "stop" consisting of a piece of tygon tubing to limit penetration of the needle to about 4.5 mm below the surface of the skin. The needle was inserted perpendicular to the skull at a midline point equidistant from thje eye and an equal distance posterior from the level of the eyes such that the injection site and the two eyes form an equilateral triangle. The injection volme (5 ul) was expelled smoothly over a period of approximately 1 second. […]
For the behavioral observations, the mice were placed in clear plastic cages. Each cage measured 19 x 26 x 15 centimeters and contained a 60-tube polypropylene test tube rack (NALGENE #5970-0020) placed on end in the center of the cage to enhance exploratory activity. […] Differences among groups were analyzed by Newman-Kewels analysis and a probability level of p<0.05 was accepted as significant. […]

Experimental findings from EP0336356A2, “Derivatives of tryptophan as CCK antagonists” (ABBOTT LABORATORIES, priority 1988, dated 1989) are described below.

Regarding `COC(=O)[C@@H](NC(=O)[C@@H](Cc1c[nH]c2ccccc12)NC(=O)c1cc2ccccc2[nH]1)c1ccccc1` [Example 25, Methyl N-(2,indolylcarbonyl)-R-Tryptophyl-S-Phenylglycinate], the figures for the IC50 in assay [1], in assay [2] and in assay [3] were 150 nM, 10000 nM and under 10000 nM, respectively.

On to `O=C(N[C@H](Cc1c[nH]c2ccccc12)C(=O)NCc1ccccc1)c1cc2ccccc2[nH]1` [Example 8, N-(2′-Indolylcarbonyl)-R-Tryptophan-benzylamide], for which the IC50 in assay [1] is 420 nM; in assay [2] it was over 10000 nM; in assay [3], under 10000 nM.

For the molecule `COC(=O)[C@@H](NC(=O)C(Cc1c[nH]c2ccccc12)NC(=O)c1cnc2ccccc2c1)c1ccccc1` (stereo partly shown) [Example 32, Methyl N-(3′-Quinolylcarbonyl)-Tryptophyl-S-Phenylglycinate], the IC50 in assay [1] was 120 nM; in assay [2], over 10000 nM; in assay [3] it was under 30000 nM.

Take `CCCCCN(CCCCC)C(=O)[C@H](Cc1c[nH]c2ccccc12)NC(=O)c1cnc2ccccc2c1` [Example 100, N-(3′-Quinolylcarbonyl)-S-Tryptophan-di-n-pentylamide]: the results for the IC50 in assay [1], in assay [2] and in assay [3] were 670 nM, 6300 nM and under 100000 nM, respectively.

As to `CCOC(=O)CN(Cc1ccccc1)C(=O)[C@@H](Cc1c[nH]c2ccccc12)NC(=O)c1cnc2ccccc2c1` [Example 29, Ethyl N-(3′-Quinolylcarbonyl)-R-Tryptophyl-(N-benzyl)Glycinate], the values for the IC50 in assay [1], in assay [2] and in assay [3] were 88 nM, 9200 nM and under 10000 nM, respectively.

Regarding `C[C@@H](NC(=O)C(Cc1c[nH]c2ccccc12)NC(=O)c1cc2ccccc2[nH]1)c1ccccc1` (stereo partly shown) [Example 18, N-(2′-Indolylcarbonyl)-Tryptophan-(1′,R-phenylethyl)amide], the IC50 was 680 nM in assay [1], 10000 nM in assay [2] and under 30000 nM in assay [3].

As for `COC(=O)[C@H](NC(=O)C(Cc1c[nH]c2ccccc12)NC(=O)c1cnc2ccccc2c1)c1ccccc1` (stereo partly shown) [Example 31, Methyl N-(3′-Quinolylcarbonyl)-Tryptophyl-R-Phenylglycinate], the IC50 in assay [1] is 300 nM; in assay [2] it was over 10000 nM; in assay [3], under 100000 nM.

Turning to `C[C@H](NC(=O)[C@@H](Cc1c[nH]c2ccccc12)NC(=O)c1cnc2ccccc2c1)c1ccccc1` [Example 36, N-(3′-Quinolylcarbonyl)-R-Tryptophan-(1′,S-phenylethyl)amide], the IC50 was 380 nM in assay [1], over 10000 nM in assay [2] and under 10000 nM in assay [3].

As to `CN(Cc1ccccc1)C(=O)C(Cc1c[nH]c2ccccc12)NC(=O)c1cnc2ccccc2c1` (stereo not shown) [Example 33, N-(3′-Quinolylcarbonyl)-Tryptophan-(N-methyl,N-benzyl)amide], the IC50 was 530 nM in assay [1], 10000 nM in assay [2] and under 30000 nM in assay [3].

On to `CCCCCN(CCCCC)C(=O)[C@@H](Cc1c[nH]c2ccccc12)NC(=O)c1cnc2ccccc2c1` [Example 21, N-(3′-Quinolylcarbonyl)-R-Tryptophan-di-n-pentylamide], for which the IC50 in assay [1] was 14 nM; in assay [2], 15000 nM; in assay [3], 42 nM. Also, the MED in assay [4] is given as 0.3 nmol.

For the molecule `C[C@@H](NC(=O)[C@@H](Cc1c[nH]c2ccccc12)NC(=O)c1cnc2ccccc2c1)c1ccccc1` [Example 39, N-(3′-Quinolylcarbonyl)-R-Tryptophan-(1′,R-phenylethyl)amide], the results for the IC50 in assay [1], in assay [2] and in assay [3] were 110 nM, over 10000 nM and under 10000 nM, respectively.
